# Experimental data as given in patent US12371454B2, “Cyclic peptide compound having Kras inhibitory action” (priority 2019, dated 2025).
# Starred links: 1 amine or outer side, 2 acyl side, 3 side chain; linkers in the order of their positions; H or OH if unused. Positions of bridges follow the written chain, without caps; N, C: chain ends. Non-standard residues stand in square brackets, D forms with d. Residues, ends and D or L forms follow the SMILES beside them. *: point of attachment. hPhe(3,5-F2-4-CF3) = N[C@@H](CCc1cc(F)c(C(F)(F)F)c(F)c1)C(=O)O; hPhe(3-Cl-4-CF3) = N[C@@H](CCc1ccc(C(F)(F)F)c(Cl)c1)C(=O)O; NMePhe(4-CF3) = CN[C@@H](Cc1ccc(C(F)(F)F)cc1)C(=O)O; 3Oxa8azabicyclo(3.2.1)octane = C1CC2COCC1N2*; NEtPhe(4-Me) = CCN[C@@H](Cc1ccc(C)cc1)C(=O)O; NMeAbu(4,4,4-F3) = CN[C@@H](CC(F)(F)F)C(=O)O; NMePhe(4-Cl) = CN[C@@H](Cc1ccc(Cl)cc1)C(=O)O; X51 = O=C([C@H](Cc1cc(F)cc(I)c1)N[*:1])[*:2]; X55 = C[C@@](Cc1cccc(I)c1)(N[*:1])C(=O)[*:2]; X77 = O=C([C@H](Cc1cc(Br)ccc1Cl)N[*:1])[*:2]; X18 = Cc1ccc(Br)cc1C[C@H](N[*:1])C(=O)[*:2]; X20 = O=C([C@H](Cc1ccc(Br)s1)N[*:1])[*:2]; NMeGly(cPent) = CN[C@H](C(=O)O)C1CCCC1; Phe(3-I) = N[C@@H](Cc1cccc(I)c1)C(=O)O; Pro(4,4-F2) = O=C(O)[C@@H]1CC(F)(F)CN1; NMeY = CN[C@@H](Cc1ccc(O)cc1)C(=O)O; NMeCha = CN[C@@H](CC1CCCCC1)C(=O)O; NMeChg = CN[C@H](C(=O)O)C1CCCCC1; NMeD = CN[C@@H](CC(=O)O)C(=O)O; NMeL = CN[C@@H](CC(C)C)C(=O)O; NMeAbu = CC[C@H](NC)C(=O)O; Morpholide = C1CN(*)CCO1; NMeA = CN[C@@H](C)C(=O)O; NMeAib = CNC(C)(C)C(=O)O; Nle = CCCC[C@H](N)C(=O)O; Piperidide = C1CCN(*)CC1; Pra = C#CC[C@H](N)C(=O)O; Pyrrolidide = C1CCN(*)C1; Ac5c = NC1(C(=O)O)CCCC1; Aze = O=C(O)[C@@H]1CCN1; CF3 = FC(F)(F)*; Sar = CNCC(=O)O
# Target: T1, Kras and SOS1 (biotin-tagged human Kras loaded with GDP, His-tagged human SOS1) (Homo sapiens, UniProt P01116, G12D)
# T1 construct: made in house; host or cells: E. coli (stated for Kras only)
# T1 sequence (P01116 1-188 isoform P01116-2 G12D): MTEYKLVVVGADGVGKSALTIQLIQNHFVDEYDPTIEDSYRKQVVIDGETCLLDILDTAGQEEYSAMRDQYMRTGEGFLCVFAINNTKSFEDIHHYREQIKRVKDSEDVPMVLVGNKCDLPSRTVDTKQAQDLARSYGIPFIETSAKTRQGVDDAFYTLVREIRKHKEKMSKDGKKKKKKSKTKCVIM
# Assay: Protein-protein interaction inhibition between Kras and SOS1 (KrasGl2D-SOS PPI) using AlphaScreen
# Assay type: binding
# Conditions: AlphaScreen; biotin-tagged human Kras loaded with GDP, His-tagged human SOS1; read-out: KRAS G12D-SOS PPI IC50
# Summary of the method: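 AlphaScreen format: Ni donor beads capture His-SOS1, streptavidin acceptor beads capture biotinylated Kras (E. coli-expressed, GDP-loaded post-purification). Excite 680 nm, read 520-620 nm.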
row,SMILES,IC50 [nM]
1,"CC[C@H](C)[C@@H]1NC(=O)[C@H](CC(C)C)N(C)C(=O)C[C@@H](C(=O)N2CCOCC2)N(C)C(=O)[C@H](C2CCCCC2)N(C)C(=O)C2(CCCC2)NC(=O)[C@@H]2CC(F)(F)CN2C(=O)[C@H](CCc2ccc(C(F)(F)F)c(Cl)c2)NC(=O)CN(C)C(=O)[C@H](CC2CCCCC2)N(C)C(=O)CN(C)C(=O)CN(C)C1=O [Compound 1194] ([NMeL]I[Sar][Sar][NMeCha][Sar][hPhe(3-Cl-4-CF3)][Pro(4,4-F2)][Ac5c][NMeChg][NMeD]-Morpholide; lactam N-11)",0.52
2,CCCC[C@@H]1NC(=O)[C@H](Cc2cc(Br)ccc2C)NC(=O)CN(C)C(=O)[C@H](Cc2ccc(OC)cc2)N(C)C(=O)[C@@H]2CCN2C(=O)[C@H](C)N(C)C(=O)[C@H]([C@@H](C)CC)NC(=O)[C@H](CC)N(C)C(=O)C[C@@H](C(=O)N2CCCCC2)N(C)C(=O)[C@H](CC(C)C)NC(=O)C(C)(C)N(C)C1=O [Compound 1195] ([NMeAbu]I[NMeA][Aze][NMeY](Me)[Sar][X18][Nle][NMeAib]L[NMeD]-Piperidide; lactam N-11),38
3,"CC[C@H](C)[C@@H]1NC(=O)[C@H](CC(F)(F)F)N(C)C(=O)C[C@@H](C(=O)N2CCCC2)N(C)C(=O)[C@H](C2CCCCC2)N(C)C(=O)C2(CCCC2)NC(=O)[C@@H]2CC(F)(F)CN2C(=O)[C@H](CCc2ccc(C(F)(F)F)c(Cl)c2)NC(=O)CN(C)C(=O)[C@H](Cc2ccc(C(F)(F)F)cc2)N(C)C(=O)CN(C)C(=O)CN(C)C1=O [Compound 1196] ([NMeAbu(4,4,4-F3)]I[Sar][Sar][NMePhe(4-CF3)][Sar][hPhe(3-Cl-4-CF3)][Pro(4,4-F2)][Ac5c][NMeChg][NMeD]-Pyrrolidide; lactam N-11)",0.48
4,CCCC[C@@H]1NC(=O)[C@](C)(Cc2cccc(I)c2)NC(=O)CN(C)C(=O)[C@H](Cc2ccc(Cl)cc2)N(C)C(=O)CN(C)C(=O)CN(C)C(=O)[C@H]([C@@H](C)CC)NC(=O)[C@H](CC(C)C)N(C)C(=O)C[C@@H](C(=O)N2CCCCC2)N(C)C(=O)[C@H](CC(C)C)NC(=O)C(C)(C)N(C)C1=O [Compound 1202] ([NMeL]I[Sar][Sar][NMePhe(4-Cl)][Sar][X55][Nle][NMeAib]L[NMeD]-Piperidide; lactam N-11),240
5,CCCC[C@@H]1NC(=O)[C@H](Cc2cc(Br)ccc2Cl)NC(=O)CN(C)C(=O)[C@H](Cc2ccc(OC)cc2)N(C)C(=O)[C@@H]2CCN2C(=O)[C@H](C)N(C)C(=O)[C@H]([C@@H](C)CC)NC(=O)[C@H](CC)N(C)C(=O)C[C@@H](C(=O)N2CCCCC2)N(C)C(=O)[C@H](CC(C)C)NC(=O)C(C)(C)N(C)C1=O [Compound 1212] ([NMeAbu]I[NMeA][Aze][NMeY](Me)[Sar][X77][Nle][NMeAib]L[NMeD]-Piperidide; lactam N-11),120
6,"CC[C@H](C)[C@@H]1NC(=O)[C@H](CC(C)C)N(C)C(=O)C[C@@H](C(=O)N2C3CCC2COC3)N(C)C(=O)[C@H](C2CCCC2)N(C)C(=O)C2(CCCC2)NC(=O)[C@@H]2CCCN2C(=O)[C@H](CCc2cc(F)c(C(F)(F)F)c(F)c2)NC(=O)CN(C)C(=O)[C@H](Cc2ccc(C)cc2)N(CC)C(=O)[C@@H]2CCN2C(=O)[C@H](C)N(C)C1=O [Compound 1215] ([NMeL]I[NMeA][Aze][NEtPhe(4-Me)][Sar][hPhe(3,5-F2-4-CF3)]P[Ac5c][NMeGly(cPent)][NMeD]-{3Oxa8azabicyclo(3.2.1)octane}; lactam N-11)",1.8
7,CCCC[C@@H]1NC(=O)[C@H](Cc2ccc(Br)s2)NC(=O)CN(C)C(=O)[C@H](Cc2ccc(Cl)cc2)N(C)C(=O)CN(C)C(=O)CN(C)C(=O)[C@H]([C@@H](C)CC)NC(=O)[C@H](CC(C)C)N(C)C(=O)C[C@@H](C(=O)N2CCCCC2)N(C)C(=O)[C@H](CC(C)C)NC(=O)C(C)(C)N(C)C1=O [Compound 1216] ([NMeL]I[Sar][Sar][NMePhe(4-Cl)][Sar][X20][Nle][NMeAib]L[NMeD]-Piperidide; lactam N-11),120
8,C#CC[C@@H]1NC(=O)[C@H](Cc2cccc(I)c2)NC(=O)CN(C)C(=O)[C@H](Cc2ccc(OC(F)(F)F)cc2)N(C)C(=O)CN(C)C(=O)CN(C)C(=O)[C@H]([C@@H](C)CC)NC(=O)[C@H](CC(C)C)N(C)C(=O)C[C@@H](C(=O)N2CCCCC2)N(C)C(=O)[C@H](CC(C)C)NC(=O)C(C)(C)N(C)C1=O [Compound 1219] ([NMeL]I[Sar][Sar][NMeY](CF3)[Sar][Phe(3-I)][Pra][NMeAib]L[NMeD]-Piperidide; lactam N-11),16
9,CCCC[C@@H]1NC(=O)[C@H](Cc2cc(F)cc(I)c2)NC(=O)CN(C)C(=O)[C@H](Cc2ccc(OC)cc2)N(C)C(=O)[C@@H]2CCN2C(=O)[C@H](C)N(C)C(=O)[C@H]([C@@H](C)CC)NC(=O)[C@H](CC)N(C)C(=O)C[C@@H](C(=O)N2CCCCC2)N(C)C(=O)[C@H](CC(C)C)NC(=O)C(C)(C)N(C)C1=O [Compound 1226] ([NMeAbu]I[NMeA][Aze][NMeY](Me)[Sar][X51][Nle][NMeAib]L[NMeD]-Piperidide; lactam N-11),15
